From patent US20260345641A1, “COMPOSITIONS AND USES THEREOF” (Algorae Pharmaceuticals Ltd, priority 2023, published 2026)

Tested on: SH-SY5Y cells
Test: Gene expression analysis by RNA sequencing in the presence of Aβ
Assay type: cell-based, human
Settings: 5 μM, with Aβ
From the text: The SH-S5Y5 neuroblastoma cell line was used for pre-clinical analysis. The SH-S5Y5 cell line is commonly used as a model for neurodegenerative disorders as the cells can be converted to various types of functional neurons by the addition of specific compounds (see, e.g., Xicoy et al., 2017, Molecular Neurodegeneration, 12: 10). In addition, the SH-S5Y5 cell line has been used widely in experimental neurological studies, including analysis of neuronal differentiation, metabolism, and function related to neurodegenerative processes, neurotoxicity and neuroprotection (see, e.g., Datki et al., 2003, Brain Research Bulletin, 62(3): 22-229; and Xie et al., 2010, Chinese Medical Journal, 123(8): 1086-1092).
Total RNA was isolated from cells using TRIzol in accordance with the manufacturer's instructions (Invitrogen, Carlsbad, CA, USA). RNA concentration and quality was assessed using a NanoDrop spectrophotometer. Only samples with a 260/280 ratio of ≥1.8 were used for further analysis.
Messenger RNA (mRNA) was purified from total RNA using poly-T oligo attached magnetic beads. After fragmentation, cDNA synthesis was performed in accordance with the manufacturer's instructions (Illumina, San Diego, CA, USA) to generate a directional and non-directional library. Libraries were checked with Qubit, real-time PCR was performed for quantification, and size distribution detection was performed using the Bioanalyzer. Quantified libraries were pooled and sequenced on an Illumina platform, according to the manufacturer's instructions.
Raw reads were filtered and mapped to human reference genome (GRCh38/hg38) using HISAT2. Differential gene expression analysis was performed using R Package DEG seq2. […] Manual annotation of genes previously associated with specific neurodegenerative disorders and dementias was performed following a text mining analysis.

Compound `COc1cc2c(cc1OC)C(=O)C(CC1CCN(Cc3ccccc3)CC1)C2` (stereo not shown) [Donepezil] has an MEG3 gene expression (control 0.007, P 0.038) of 0.008, an SAMD12 gene expression (control 0.011, P 0.052) of 0.002 and a TNF gene expression (control 0.032, P 0.046) of 0.026. It also gave an ATXN7 gene expression (control 0.042, P 0.014) of 0.150, a PRICKLE2 gene expression (control 0.060, P 0.007) of 0.085 and an IRF4 gene expression (control 0.076, P 0.050) of 0.010. For the same compound, the NRXN1 gene expression (control 0.085, P 0.007) was 0.125, the DNAH8 gene expression (control 0.090, P 0.017) was 0.009 and the MME gene expression (control 0.091, P 0.004) was 0.240. The CLN3 gene expression (control 0.092, P 0.051) was 0.093, the DMD gene expression (control 0.166, P 0.017) was 0.352 and the PPP2R2B gene expression (control 0.179, P 0.056) was 0.146. The PRSS23 gene expression (control 0.196, P 0.022) was 0.193, the ACE gene expression (control 0.209, P 0.004) was 0.644 and the A2M gene expression (control 0.242, P 0.006) was 0.122. For the same compound, the TCIRG1 gene expression (control 0.302, P 0.023) was 0.340, the SLC1A1 gene expression (control 0.314, P 0.003) was 0.482 and the NTNG1 gene expression (control 0.327, P 0.009) was 0.249. The NTRK2 gene expression (control 0.329, P 0.015) was 0.700, the PIH1D2 gene expression (control 0.334, P 0.023) was 0.137 and the TUBA4A gene expression (control 0.334, P 0.053) was 0.432. For the same compound, the FGFR2 gene expression (control 0.353, P 0.053) was 0.228, the PDE11A gene expression (control 0.366, P 0.020) was 0.416 and the TUNAR gene expression (control 0.382, P 0.009) was 0.441. It also gave an RETREG1 gene expression (control 0.386, P 0.001) of 0.774, an SORL1 gene expression (control 0.455, P 0.009) of 0.683 and a DPY19L2P2 gene expression (control 0.469, P 0.040) of 0.560. For the same compound, the TRIM9 gene expression (control 0.529, P 0.008) was 1.021, the MATR3 gene expression (control 0.559, P 0.001) was 0.511 and the SYCE2 gene expression (control 0.567, P 0.049) was 0.604. It also gave a PLA2G6 gene expression (control 0.634, P 0.016) of 0.830, a DEPDC5 gene expression (control 0.656, P 0.020) of 0.683 and a CLN5 gene expression (control 0.695, P 0.004) of 0.652. It also gave an SLC9B1 gene expression (control 0.735, P 0.053) of 0.713, a PLAU gene expression (control 0.799, P 0.005) of 1.790 and an ATXN1 gene expression (control 0.851, P 0.002) of 1.152. The IRAK1BP1 gene expression (control 0.866, P 0.030) was 0.848, the PRPH gene expression (control 0.870, P 0.011) was 1.132 and the FHIT gene expression (control 0.882, P 0.033) was 1.086. The CFAP43 gene expression (control 0.931, P 0.049) was 0.636, the TMEM63A gene expression (control 0.954, P 0.055) was 1.141 and the LRRC56 gene expression (control 0.982, P 0.002) was 1.129. It also gave a PARD3B gene expression (control 0.986, P 0.002) of 1.168, an ADCY5 gene expression (control 1.228, P 0.036) of 1.662 and a DISC1 gene expression (control 1.302, P 0.033) of 1.242. It also gave a KCNT1 gene expression (control 1.355, P 0.002) of 1.707, a GAN gene expression (control 1.529, P 0.018) of 1.495 and a DPP10 gene expression (control 1.590, P 0.009) of 1.562. The CHRNB4 gene expression (control 1.624, P 0.018) was 2.920, the MEF2C gene expression (control 1.668, P 0.044) was 1.624 and the PACRG gene expression (control 1.720, P 0.027) was 1.797. For the same compound, the CDKL5 gene expression (control 1.735, P 0.001) was 2.077, the SIL1 gene expression (control 1.736, P 0.021) was 1.886 and the PDLIM3 gene expression (control 1.777, P 0.026) was 3.231. The MT-TH gene expression (control 1.782, P 0.047) was 0.388, the MT-TD gene expression (control 1.849, P 0.032) was 2.334 and the MMACHC gene expression (control 1.874, P 0.018) was 1.731. It also gave a ZFYVE26 gene expression (control 1.909, P 0.032) of 1.930, a TMLHE gene expression (control 1.915, P 0.004) of 2.188 and an MAPT gene expression (control 1.915, P 0.007) of 2.615. It also gave an MSRA gene expression (control 1.969, P 0.027) of 1.709, a COQ2 gene expression (control 1.970, P 0.055) of 1.406 and a PINK1-AS gene expression (control 1.974, P 0.029) of 1.689. For the same compound, the DLG2 gene expression (control 1.977, P 0.041) was 2.816, the FZD3 gene expression (control 1.990, P 0.010) was 2.276 and the KATNAL2 gene expression (control 2.005, P 0.000) was 2.056. The ALMS1 gene expression (control 2.170, P 0.003) was 2.220, the HOTAIR gene expression (control 2.219, P 0.008) was 1.982 and the SETD1B gene expression (control 2.501, P 0.005) was 3.039. The DRD2 gene expression (control 2.532, P 0.031) was 4.790, the SMARCA2 gene expression (control 2.546, P 0.044) was 2.658 and the MFSD8 gene expression (control 2.553, P 0.038) was 2.381. For the same compound, the BDNF gene expression (control 2.554, P 0.014) was 0.255, the ABCA7 gene expression (control 2.607, P 0.032) was 2.087 and the FSD1L gene expression (control 2.639, P 0.002) was 2.451. For the same compound, the ROGDI gene expression (control 2.747, P 0.055) was 3.041, the SPG7 gene expression (control 2.790, P 0.011) was 2.471 and the MT-TW gene expression (control 2.846, P 0.019) was 2.620. It also gave an ATP1A3 gene expression (control 2.847, P 0.021) of 3.739, an ATL1 gene expression (control 2.891, P 0.027) of 3.208 and a GM2A gene expression (control 2.985, P 0.005) of 5.621. It also gave an LYST gene expression (control 3.000, P 0.053) of 2.468, an APOL2 gene expression (control 3.111, P 0.054) of 3.390 and a DCX gene expression (control 3.114, P 0.003) of 3.488. The IFT74 gene expression (control 3.453, P 0.032) was 4.207, the CLN8 gene expression (control 3.580, P 0.014) was 2.847 and the RBM12 gene expression (control 3.638, P 0.000) was 3.884. It also gave a PRICKLE1 gene expression (control 3.757, P 0.002) of 3.333, a DPH1 gene expression (control 3.762, P 0.040) of 3.962 and a TRAPPC9 gene expression (control 3.776, P 0.021) of 4.781. The EIF2B3 gene expression (control 3.828, P 0.043) was 3.200, the PDE10A gene expression (control 3.855, P 0.030) was 3.147 and the TRAPPC2 gene expression (control 3.872, P 0.053) was 4.012. The C9orf72 gene expression (control 3.921, P 0.001) was 8.663, the TFEB gene expression (control 4.181, P 0.001) was 2.618 and the PODXL gene expression (control 4.194, P 0.011) was 4.847. For the same compound, the ATP6V0A2 gene expression (control 4.281, P 0.017) was 4.607, the TTC21B gene expression (control 4.351, P 0.026) was 4.248 and the VPS13D gene expression (control 4.370, P 0.001) was 4.565. For the same compound, the PIGQ gene expression (control 4.438, P 0.008) was 4.983, the PTPRM gene expression (control 4.505, P 0.000) was 4.710 and the RHOBTB2 gene expression (control 4.522, P 0.012) was 5.349. The MRE11 gene expression (control 4.546, P 0.036) was 4.436, the EHMT1 gene expression (control 4.566, P 0.010) was 4.445 and the CYLD gene expression (control 4.607, P 0.036) was 3.887. It also gave a PRDM8 gene expression (control 4.779, P 0.013) of 3.461, an RNF213 gene expression (control 4.801, P 0.002) of 5.276 and a USP8 gene expression (control 4.840, P 0.047) of 3.827. The LIG3 gene expression (control 4.935, P 0.007) was 5.232, the MIAT gene expression (control 5.041, P 0.014) was 6.814 and the JAM2 gene expression (control 5.256, P 0.040) was 4.131. It also gave a PSEN2 gene expression (control 5.259, P 0.051) of 5.579, an LMBRD1 gene expression (control 5.367, P 0.022) of 5.309 and an NPC1 gene expression (control 5.515, P 0.001) of 6.062. For the same compound, the OPA1 gene expression (control 5.517, P 0.001) was 9.622, the VAPB gene expression (control 5.611, P 0.005) was 5.235 and the ANXA11 gene expression (control 5.661, P 0.025) was 6.974. It also gave an MT-TI gene expression (control 5.685, P 0.038) of 4.404, a GOSR2 gene expression (control 5.846, P 0.000) of 5.640 and an LDLR gene expression (control 5.953, P 0.003) of 7.563. It also gave a DDHD2 gene expression (control 6.006, P 0.000) of 6.144, an SREBF1 gene expression (control 6.248, P 0.024) of 8.317 and an SLC25A24 gene expression (control 6.258, P 0.036) of 5.685. It also gave a CREB1 gene expression (control 6.333, P 0.006) of 7.340, an FIG4 gene expression (control 6.430, P 0.051) of 6.116 and a BLMH gene expression (control 6.516, P 0.013) of 6.896. The APTX gene expression (control 6.525, P 0.011) was 6.767, the TPP1 gene expression (control 6.541, P 0.009) was 7.171 and the ADAM10 gene expression (control 6.563, P 0.019) was 5.824. The MT-TA gene expression (control 6.758, P 0.027) was 2.804, the RAB33A gene expression (control 6.793, P 0.003) was 6.922 and the MT-TC gene expression (control 6.838, P 0.052) was 10.995. The MECP2 gene expression (control 6.880, P 0.033) was 5.530, the SPAST gene expression (control 6.944, P 0.053) was 5.978 and the TMEM106B gene expression (control 7.108, P 0.005) was 6.957. It also gave a CRAT gene expression (control 7.227, P 0.031) of 9.692, a CSTB gene expression (control 7.261, P 0.008) of 9.549 and an IRF6 gene expression (control 7.365, P 0.000) of 5.933. For the same compound, the TRPM7 gene expression (control 7.393, P 0.030) was 5.958, the OTUD6B gene expression (control 7.405, P 0.048) was 6.534 and the MAPK8 gene expression (control 7.482, P 0.022) was 9.392. It also gave a POLR1C gene expression (control 7.525, P 0.034) of 6.234, a CHCHD10 gene expression (control 7.586, P 0.010) of 11.163 and an ATL3 gene expression (control 7.656, P 0.030) of 6.616. For the same compound, the WDR37 gene expression (control 7.709, P 0.023) was 7.870.
